Literature values, collected in patent publication US20120100040A1, “COMPOSITION FOR S[…]” (Bakteriefritt AS, priority 2009, published 2012).

Conditions: rat, orally

CS(C)(=O)=O [dimethylsulfone]
LD50: > 5000 mg/kg
